In patent US20240101531A1, “PYRIDINAMINE DERIVATIVES AND THEIR USE AS POTASSIUM CHANNEL MODULATORS” (Xenon Pharmaceuticals Inc., priority 2022, published 2024):
pEC50: −log10 of the molar value.

Target: human KV7.2/KV7.3 (Homo sapiens (Human), UniProt O43525+O43526)
Assay: Potassium flux assay (IPG-2 AM dye)
Type: cell-based
Settings: TREX HEK 293 or HEK 293 cells expressing human KV7.2/KV7.3; arithmetic mean values
How it was run: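 EC50 from 16 concentrations (2-fold dilutions, top 30 μM), scaled between DMSO baseline and a known KV7.x modulator maximum. Signal is IPG-2 AM fluorescence (ex 530/em 558 nm) after 10 mM KCl challenge buffer addition, following 20 min room-temperature compound exposure of HEK 293 or TREX HEK 293 cells stably expressing human KV7.2/KV7.3.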

Structure (SMILES)	pEC50
Clc1ccc(Nc2nccc3cc(COc4cn[nH]c4)ccc23)cn1 [Example 304, 6-(((1H-pyrazol-4-yl)oxy)methyl)-N-(6-chloropyridin-3-yl)isoquinolin-1-amine]	5.00 to 6.00
COCC1(COc2ccc3c(Nc4ccc(Cl)nc4)nccc3c2)COC1 [Example 306, N-(6-chloropyridin-3-yl)-6-((3-(methoxymethyl)oxetan-3-yl)methoxy)isoquinolin-1-amine]	> 6.00
Cn1cnc(COc2ccc3c(Nc4ccc(Cl)nc4)nccc3c2)n1 [Example 307, N-(6-chloropyridin-3-yl)-6-((1-methyl-1H-1,2,4-triazol-3-yl)methoxy)isoquinolin-1-amine]	5.00 to 6.00
CC(=O)N1CC(COc2ccc3c(Nc4ccc(Cl)nc4)nccc3c2)C1 [Example 309, 1-(3-(((1-((6-chloropyridin-3-yl)amino)isoquinolin-6-yl)oxy)methyl)azetidin-1-yl)ethan-1-one]	5.00 to 6.00
FC(F)(F)CN1CC(COc2ccc3c(Nc4ccc(Cl)nc4)nccc3c2)C1 [Example 310, N-(6-chloropyridin-3-yl)-6-((1-(2,2,2-trifluoroethyl)azetidin-3-yl)methoxy)isoquinolin-1-amine]	5.00 to 6.00
FC(F)CN1CCC(Oc2ccc3c(Nc4ccc(Cl)nc4)nccc3c2)CC1 [Example 315, N-(6-chloropyridin-3-yl)-6-((1-(2,2-difluoroethyl)piperidin-4-yl)oxy)isoquinolin-1-amine]	5.00 to 6.00
CC(=O)N1CCC(COc2ccc3c(Nc4ccc(Cl)nc4)nccc3c2)CC1 [Example 318, 1-(4-(((1-((6-chloropyridin-3-yl)amino)isoquinolin-6-yl)oxy)methyl)piperidin-1-yl)ethan-1-one]	> 6.00
C[C@@H]1CN(CCOc2ccc3c(Nc4ccc(Cl)nc4)nccc3c2)C[C@H](C)O1 [Example 319, N-(6-chloropyridin-3-yl)-6-(2-((2S,6R)-2,6-dimethylmorpholino)ethoxy)isoquinolin-1-amine]	5.00 to 6.00
CC1CN(CCOc2ccc3c(Nc4ccc(Cl)nc4)nccc3c2)CCO1 (stereo not shown) [Example 323, N-(6-chloropyridin-3-yl)-6-(2-(2-methylmorpholino)ethoxy)isoquinolin-1-amine]	5.00 to 6.00
FC(F)(F)CN1CC(Oc2ccc3c(Nc4ccc(Cl)nc4)nccc3c2)C1 [Example 325, N-(6-chloropyridin-3-yl)-6-((1-(2,2,2-trifluoroethyl)azetidin-3-yl)oxy)isoquinolin-1-amine]	5.00 to 6.00
CCC1(COc2ccc3c(Nc4ccc(Cl)nc4)nccc3c2)COC1 [Example 328, N-(6-chloropyridin-3-yl)-6-((3-ethyloxetan-3-yl)methoxy)isoquinolin-1-amine]	> 6.00
OCC1(COc2ccc3c(Nc4ccc(Cl)nc4)nccc3c2)COC1 [Example 329, (3-(((1-((6-chloropyridin-3-yl)amino)isoquinolin-6-yl)oxy)methyl)oxetan-3-yl)methanol]	5.00 to 6.00
N#CC1(COc2ccc3c(Nc4ccc(Cl)nc4)nccc3c2)CC2(COC2)C1 [Example 333, 6-(((1-((6-chloropyridin-3-yl)amino)isoquinolin-6-yl)oxy)methyl)-2-oxaspiro[3.3]heptane-6-carbonitrile]	> 6.00
Clc1ccc(Nc2nccc3cc(OCc4cn[nH]c4)ccc23)cn1 [Example 334, 6-((1H-pyrazol-4-yl)methoxy)-N-(6-chloropyridin-3-yl)isoquinolin-1-amine]	> 6.00
CC(Oc1ccc2c(Nc3ccc(Cl)nc3)nccc2c1)c1cn[nH]c1 (stereo not shown) [Example 335, 6-(1-(1H-pyrazol-4-yl)ethoxy)-N-(6-chloropyridin-3-yl)isoquinolin-1-amine]	5.00 to 6.00
Cc1ncc(Nc2nccc3cc(O[C@H]4CCC[C@@H](O)C4)ccc23)cn1 [Example 339, (1R,3S)-3-((1-((2-methylpyrimidin-5-yl)amino)isoquinolin-6-yl)oxy)cyclohexan-1-ol]	> 6.00
CC1(CCc2ccc3c(Nc4ccc(Cl)nc4)nccc3c2)COC1 [Example 341, N-(6-chloropyridin-3-yl)-6-(2-(3-methyloxetan-3-yl)ethyl)isoquinolin-1-amine]	5.00 to 6.00
N#C[C@H]1CCC[C@H](Oc2ccc3c(Nc4ccc(Cl)nc4)nccc3c2)C1 [Example 342, (1 S,3S)-3-((1-((6-chloropyridin-3-yl)amino)isoquinolin-6-yl)oxy)cyclohexane-1-carbonitrile]	5.00 to 6.00
N#C[C@@H]1CCC[C@H](Oc2ccc3c(Nc4ccc(Cl)nc4)nccc3c2)C1 [Example 343, (1R,3S)-3-((1-((6-chloropyridin-3-yl)amino)isoquinolin-6-yl)oxy)cyclohexane-1-carbonitrile]	5.00 to 6.00
N#C[C@@H]1CCC[C@@H](Oc2ccc3c(Nc4ccc(Cl)nc4)nccc3c2)C1 [Example 344, (1R,3R)-3-((1-((6-chloropyridin-3-yl)amino)isoquinolin-6-yl)oxy)cyclohexane-1-carbonitrile]	5.00 to 6.00
N#C[C@H]1CCC[C@@H](Oc2ccc3c(Nc4ccc(Cl)nc4)nccc3c2)C1 [Example 345, (1 S,3R)-3-((1-((6-chloropyridin-3-yl)amino)isoquinolin-6-yl)oxy)cyclohexane-1-carbonitrile]	5.00 to 6.00

The next lines start with the values.

pEC50	Structure (SMILES)
5.00 to 6.00	Cc1ncc(Nc2nccc3cc(OCc4cncnc4)ccc23)cn1 [Example 308, N-(2-methylpyrimidin-5-yl)-6-(pyrimidin-5-ylmethoxy)isoquinolin-1-amine]
5.00 to 6.00	Cn1cc(Oc2ccc3c(Nc4ccc(Cl)nc4)nccc3c2)cn1 [Example 311, N-(6-chloropyridin-3-yl)-6-((1-methyl-1H-pyrazol-4-yl)oxy)isoquinolin-1-amine]
5.00 to 6.00	CC(=O)N1CCC(Oc2ccc3c(Nc4ccc(Cl)nc4)nccc3c2)CC1 [Example 312, 1-(4-((1-((6-chloropyridin-3-yl)amino)isoquinolin-6-yl)oxy)piperidin-1-yl)ethan-1-one]
5.00 to 6.00	Clc1ccc(Nc2nccc3cc(OC4CCN(C5COC5)CC4)ccc23)cn1 [Example 313, N-(6-chloropyridin-3-yl)-6-((1-(oxetan-3-yl)piperidin-4-yl)oxy)isoquinolin-1-amine]
5.00 to 6.00	Clc1ccc(Nc2nccc3cc(OC4CCN(Cc5ncccn5)CC4)ccc23)cn1 [Example 314, N-(6-chloropyridin-3-yl)-6-((1-(pyrimidin-2-ylmethyl)piperidin-4-yl)oxy)isoquinolin-1-amine]
> 6.00	CC(=O)N[C@H]1CC[C@@H](Oc2ccc3c(Nc4ccc(Cl)nc4)nccc3c2)CC1 [Example 316, N-(cis-4-((1-((6-chloropyridin-3-yl)amino)isoquinolin-6-yl)oxy)cyclohexyl)acetamide]
5.00 to 6.00	CC(=O)N[C@H]1CC[C@H](Oc2ccc3c(Nc4ccc(Cl)nc4)nccc3c2)CC1 [Example 317, N-(trans-4-((1-((6-chloropyridin-3-yl)amino)isoquinolin-6-yl)oxy)cyclohexyl)acetamide]
5.00 to 6.00	COC(=O)C1COCCN1CCOc1ccc2c(Nc3ccc(Cl)nc3)nccc2c1 (stereo not shown) [Example 320, methyl 4-(2-((1-((6-chloropyridin-3-yl)amino)isoquinolin-6-yl)oxy)ethyl)morpholine-3-carboxylate]
5.00 to 6.00	C[C@H]1COCCN1CCOc1ccc2c(Nc3ccc(Cl)nc3)nccc2c1 [Example 321, (S)-N-(6-chloropyridin-3-yl)-6-(2-(3-methylmorpholino)ethoxy)isoquinolin-1-amine]
5.00 to 6.00	C[C@@H]1COCCN1CCOc1ccc2c(Nc3ccc(Cl)nc3)nccc2c1 [Example 322, (R)-N-(6-chloropyridin-3-yl)-6-(2-(3-methylmorpholino)ethoxy)isoquinolin-1-amine]
5.00 to 6.00	Cc1ncc(Nc2nccc3cc(OCc4cnn(C)c4)ccc23)cc1O [Example 324, 2-methyl-5-((6-((1-methyl-1H-pyrazol-4-yl)methoxy)isoquinolin-1-yl)amino)pyridin-3-ol]
> 6.00	FC(F)C1(COc2ccc3c(Nc4ccc(Cl)nc4)nccc3c2)CC1 [Example 326, N-(6-chloropyridin-3-yl)-6-((1-(difluoromethyl)cyclopropyl)methoxy)isoquinolin-1-amine]
> 6.00	FC(F)C1(COc2ccc3c(Nc4ccc(Cl)nc4)nccc3c2)COC1 [Example 327, N-(6-chloropyridin-3-yl)-6-((3-(difluoromethyl)oxetan-3-yl)methoxy)isoquinolin-1-amine]
> 6.00	OC12CC3CC(C1)CC(Oc1ccc4c(Nc5ccc(Cl)nc5)nccc4c1)(C3)C2 [Example 331, 3-((1-((6-chloropyridin-3-yl)amino)isoquinolin-6-yl)oxy)adamantan-1-ol]
5.00 to 6.00	Clc1ccc(Nc2nccc3cc(OCC4CC45CCC5)ccc23)cn1 (stereo not shown) [Example 332, N-(6-chloropyridin-3-yl)-6-(spiro[2.3]hexan-1-ylmethoxy)isoquinolin-1-amine]
5.00 to 6.00	COCCn1cc(COc2ccc3c(Nc4ccc(Cl)nc4)nccc3c2)cn1 [Example 336, N-(6-chloropyridin-3-yl)-6-((1-(2-methoxyethyl)-1H-pyrazol-4-yl)methoxy)isoquinolin-1-amine]
5.00 to 6.00	Clc1ccc(Nc2nccc3cc(OCc4c[nH]nc4Cl)ccc23)cn1 [Example 337, 6-((3-chloro-1H-pyrazol-4-yl)methoxy)-N-(6-chloropyridin-3-yl)isoquinolin-1-amine]
5.00 to 6.00	Cc1n[nH]c(C)c1COc1ccc2c(Nc3ccc(Cl)nc3)nccc2c1 [Example 338, N-(6-chloropyridin-3-yl)-6-((3,5-dimethyl-1H-pyrazol-4-yl)methoxy)isoquinolin-1-amine]
> 6.00	Cc1ncc(Nc2nccc3cc(O[C@@H]4CCC[C@H](O)C4)ccc23)cn1 [Example 340, (1 S,3R)-3-((1-((2-methylpyrimidin-5-yl)amino)isoquinolin-6-yl)oxy)cyclohexan-1-ol]
